For one test, the system named is pErk. Briefly: pErk in CD33-positive cells, MOLM13 systemic xenograft model, flow cytometry. In kind it is in vivo, mice. As to conditions: 50 mg/kg for 4 days. As for the experimental part: (§1) Material from an in vivo MOLM13 systemic model was also evaluated by flow cytometry. Expression of the previously evaluated biomarkers was examined in cells isolated from bone marrows and spleens of animals with systemic AML disease (MOLM13, inoculated for 7 days prior to treatment) treated with BGB324 at 50 mg/kg for 4 days. The spleens analysed were from the same study that was analysed by microarray, as mentioned above. The bone marrows were from an identical study that was done at a later time point to get more material for flow analyses.
(§2) Cells isolated from spleens and bone marrows were assessed for phosphorylation of Erk, PLCγ1 and Akt, and expression of PHGDH and SLFN11. The samples were also co-stained with CD33, and biomarker expression was only evaluated in CD33-positive cells.
A general note: In flow cytometry, cells or beads pass a laser one at a time.

A further test relates to pAkt(S473). As to the kind of experiment: pAkt(S473) by flow cytometry in MOLM13 cells (Example 1). In kind it is cell-based, human. As for the experimental part: Staining of Cells for Flow Cytometry, General Protocol: • Live cells were centrifuged at 300 G for 5 minutes, washed once with PBS and centrifuged again. Cells were then fixed in 4% PFA in PBS for 10 minutes at 37° C., and resuspended in PBS. Unless processed immediately, samples were at this point stored in PBS at 4° C. (up to three weeks) or at −80° C. (for long-term storage). If intracellular epitopes were stained, cells were permebealized in 90% MeOH for 30 minutes on ice. Unless processed immediately, samples were also be stored in 90% MeOH at −20° C. for up to two months. • Further staining procedure (permebealized or non-permebealized cells): • Cells were washed 1× in PBS and blocked in blocking buffer; either PBS+0.5% BSA or PBS+1:1000 Octagam (5 mg/ml) for 15 minutes at room temperature. Thereafter, cells were incubated with primary AB at the indicated dilutions in incubation buffer (IB, PBS+0.5% BSA) for 1 hour at room temperature. Cells were then washed 3× with IB and incubated with secondary AB (conjugated to a fluorescent flurophore) at 1:1000 dilution in IB for 30 minutes at room temperature. Finally, cells were washed 3× in IB and resuspended in PBS. Cells were analyzed immediately, or stored for up to 24 hours at 4° C. before analysis. • Analysis of cells was done on a BD LSR Fortessa or a BD C6 Accuri flow cytometer, and further processing was done using FlowJo v.7.6. • All incubation steps (but not storage) were done on a spinning wheel or gentle shaker.
MOLM13 cells were treated with BGB324 at different doses, and phosphorylation of Akt at the S473 phosphorylation site was assessed using a pAkt (S473) XP antibody from Cell Signaling Technology (#4060, BGB #109). Due to previous experience using this AB for flow, the AB was not titrated, but used at the concentration recommended by the manufacturer for flow cytometry.
MOLM13 cells were cultured in starvation medium (RPMI, 0.1% FBS) over night, pre-treated with BGB324 at 3 μM for 20 minutes, and thereafter stimulated with 10% FBS for 20 minutes (+/−BGB324) to induce Akt phosphorylation. […]

In the next test the test system is SLFN11. Briefly: SLFN11 in CD33-positive cells, MOLM13 systemic xenograft model, flow cytometry. As to conditions: bone marrows, 50 mg/kg for 4 days. In kind it is in vivo, mice. As for the experimental part:
as §1, §2

The source of these data is US11035008B2, “Biomarkers for cancer” (BERGENBIO ASA, priority 2015, dated 2021).

Structures are written as SMILES.

With `Nc1nc(Nc2ccc3c(c2)CC[C@@H](N2CCCC2)CC3)nn1-c1cc2c(nn1)-c1ccccc1CCC2` [BGB324, 1-(6,7-dihydro-5H-benzo[6,7]cyclohepta[1,2-c]pyridazin-3-yl)-N3-((7-(S)-pyrrolidin-1-yl)-6,7,8,9-tetrahydro-5H-benzo[7]annulene-2-yl)-1H-1,2,4-triazole-3,5-diamine], the pErk result in the test with pErk (bone marrows) and in the test on pErk (spleens) was “significant reduction” each time. The “pAkt in shAxl-expressing cells” value in the test on pAkt(S473) (MOLM13 shAxl (Axl knockdown), 0.1-3 μM) is given as “inhibition of pAkt was also seen”. The “Akt(S473) phosphorylation” value in the test with pAkt(S473) (MOLM13 starved over night, 3 μM, presence and absence of 10% FBS) is listed as “potently inhibited”. Further, the pAkt dose-response result with pAkt(S473) (MOLM13 wt, shLuc, shAxl, 0.1-3 μM, starved and non-starved) is “potent dose-dependent reduction of pAkt”. For the same compound, the SLFN11 expression result in the test with SLFN11 is recorded as “significant reduction”.
